Measured values taken from patent publication US6468981B1, “Compositions and methods for targeting pharmaceutically active materials to cells containing androgen receptors” (Emory University, priority 1994, dated 2002).

Experiments:
[1] = target: androgen receptor of LNCaP prostate tumor cells (Homo sapiens, UniProt P10275, T878A); conditions: cited from earlier work
[2] = tested on: LNCaP cells; assay: Expression of pCMV-beta (lacZ) DNA in LNCaP cells, X-gal blue staining, number of blue cells per culture plate; format: cell-based, human; conditions: DHT-poly-L-lysine alone, no DNA; 48 hours incubation
Description: DHT poly-L-lysine as described in Example 1 was dialyzed against tris-EDTA buffer pH=7 (“HMW-D”) or purified by gel filtration column chromatography (“HMW-2=fraction #2 of the column, HMW-9=fraction 9 of the column). Protein concentrations of reaction products and column fractions were determined by the coomassie blue method. DHT-poly-L-lysine at amounts from 0.05 micrograms to 12.5 micrograms were mixed with pCMV-beta DNA expression construct containing the lacZ gene driven by the CMV immediate early promoter/enhancer in a pVC19 backbone, in amounts from 3 to 50 micrograms in 100 microliters of water at room temperature for one hour with vortex mixing every 15 minutes.
The reaction products of Example 2 were added to 1-3 ml of tissue culture media supplemented with 10% fetal bovine serum and filtered through 0.2 micron filter and added to subconfluent cultures of LNCaP cells growing on glass slides. Cells were incubated at 37 degrees C. 5% CO2 for 48 hours. Next, adherent cells were washed with phosphate buffered saline (PBS) and fixed with 2% paraformaldelyde in 0.1 M NaPO4 buffer pH=7.4 for 45 min. to one hour. Fixative was aspirated and cells rinsed with PBS and X-gal stain was applied. […] Each culture plate was scored for the number of cells which turned blue.

Chain of androgen receptor of LNCaP prostate tumor cells (P10275 whole entry T878A): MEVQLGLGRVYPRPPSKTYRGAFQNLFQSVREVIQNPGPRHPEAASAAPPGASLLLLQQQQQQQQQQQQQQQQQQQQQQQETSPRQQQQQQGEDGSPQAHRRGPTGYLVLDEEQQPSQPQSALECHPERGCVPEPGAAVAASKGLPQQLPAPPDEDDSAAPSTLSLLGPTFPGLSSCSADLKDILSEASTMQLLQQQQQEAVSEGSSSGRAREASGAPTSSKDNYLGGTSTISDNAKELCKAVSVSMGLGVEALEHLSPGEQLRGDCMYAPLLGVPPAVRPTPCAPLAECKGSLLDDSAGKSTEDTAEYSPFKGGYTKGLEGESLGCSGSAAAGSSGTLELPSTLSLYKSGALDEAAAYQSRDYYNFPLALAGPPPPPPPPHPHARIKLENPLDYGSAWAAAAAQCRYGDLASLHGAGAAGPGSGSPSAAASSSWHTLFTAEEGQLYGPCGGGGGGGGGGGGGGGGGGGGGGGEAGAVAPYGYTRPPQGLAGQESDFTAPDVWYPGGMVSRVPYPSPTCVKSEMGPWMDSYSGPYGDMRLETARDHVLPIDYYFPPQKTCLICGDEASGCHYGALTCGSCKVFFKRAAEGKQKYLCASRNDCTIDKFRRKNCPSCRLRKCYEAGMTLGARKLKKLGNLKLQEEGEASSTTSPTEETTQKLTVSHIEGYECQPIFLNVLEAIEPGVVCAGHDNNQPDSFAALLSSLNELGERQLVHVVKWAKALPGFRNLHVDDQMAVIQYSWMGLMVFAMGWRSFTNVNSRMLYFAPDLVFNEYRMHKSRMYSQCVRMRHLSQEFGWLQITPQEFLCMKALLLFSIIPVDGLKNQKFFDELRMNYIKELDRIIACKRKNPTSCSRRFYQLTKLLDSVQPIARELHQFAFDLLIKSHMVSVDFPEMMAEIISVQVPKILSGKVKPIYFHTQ

Molecule: C[C@]1(O)CC[C@H]2[C@@H]3CCC4=CC(=O)CCC4=C3C=C[C@@]21C [R1881, 17β-hydroxy-17α-methyl-estra-4,9,11-trien-3-one]
- Relative binding affinities for the androgen receptor [1]: 100

Molecule: DHT-poly-L-lysine HBr
- positive (blue-stained) cells [2]: no positive cells
